Results from patent US20250011289A1, “1H-BENZO[B]AZEPIN-2(3H)-ONE COMPOUNDS, COMPOSITIONS AND METHODS OF TREATING CANCER” (Chengdu Anticancer Bioscience, Ltd., priority 2021, published 2025).
Read-outs that look alike come from different tables or passages of the source.

What was measured:
[1] = tested on: RPE-Neo or RPE-MYC or RPE-MYC expressing an EGFP-Histone 2B fusion protein; test: Phenotypic screening assay (arrest in mitosis or change in DNA content, IN-Cell Analyzer); type: cell-based; settings: compounds at 20 nM to 20 μM, analysed 24, 48 or 72 hours after initiation of treatment
Method: (§1) Screening was conducted as described before (Li et al. 2019). Briefly, RPE-Neo or RPE-MYC or RPE-MYC expressing an EGFP-Histone 2B fusion protein were passaged as batches of 96-well plates, 18-24 hours before exposure to the chemical compounds of the present disclosure at concentrations from 20 nM to 20 μM. At 24, 48 or 72 hours after initiation of treatment, cells were analyzed for either an arrest in mitosis or a change in DNA content by GE 1N-Cell Analyzer 2000. MTT assays of cellular proliferation were performed as previously described (Li et al. 2019).
(§2) As set forth in table 2 below, an values of greater than or equal to 1 nM and less than or equal to 1.0 μM is marked “A”; a value greater than 1.00 μM and less than or equal to 10.0 μM is marked “B”; a value greater than 10.0 μM and less than or equal to 30.0 μM is marked “C”; and a value greater than 30.0 μM and less than 1000 μM is marked “D.”

RPE-Neo or RPE-MYC cells = test: MTT assay of cellular proliferation; type: cell-based; settings: compounds at 20 nM to 20 μM; read-out: Min. Effective conc. for Proliferative arrest (>50%)
Method: Human cancer cell lines were obtained from ATCC and cultured in DMEM (Gibco, Cleveland. TN, USA) supplemented with 5% fetal bovine serum (Gibco), penicillin (100 U/mL)-streptomycin (100 μg/mL) (Gibco, Cat. No. 15140-122), 2 mM L-glutamine (Gibco, 200 mM solution, Cat. No. 25030081), and 1 mM sodium pyruvate (Gibco, 100 mM solution, Cat. No. 11360070) at 37° C. in a humidified incubator that was maintained at 5% CO2.
as §1, §2

[2] = read-out: Min. Effective conc. for Along with Cell Death
[3] = read-out: Min. Effective conc. for Mitotic Arrest (>5%)
[4] = read-out: Min. Effective conc. for Polyploidy (≥5%)

SMILES	minimal effective concentration [1, 2]	minimal effective concentration [1, 3]	minimal effective concentration [1, 4]	minimal effective concentration (RPE-Neo or RPE-MYC cells)
COc1ccc2c(c1)N(Cc1ccc(C)c(F)c1)C(=O)CC(c1cnco1)=C2Br [Compound 8-6, 5-bromo-1-(3-fluoro-4-methylbenzyl)-8-methoxy-4-(oxazol-5-yl)-1,3-dihydro-2H-benzo[b]azepin-2-one]	0.001 to 1 µM	0.001 to 1 µM	0.001 to 1 µM	0.001 to 1 µM
Cc1ccc(CN2C(=O)CC(c3nnc(C4CC4)o3)=C(C3CC3)c3ccccc32)cc1F [Compound 20-29]	1 to 10 µM	1 to 10 µM	1 to 10 µM	1 to 10 µM
COc1ccc(CN2C(=O)CC(c3nnc(C4CC4)o3)=C(Br)c3ccccc32)cc1 [Compound 20-21, 5-bromo-4-(5-cyclopropyl-1,3,4-oxadiazol-2-yl)-1-(4-methoxybenzyl)-1,3-dihydro-2H-benzo[b]azepin-2-one]	0.001 to 1 µM	0.001 to 1 µM	0.001 to 1 µM	0.001 to 1 µM
Cc1ccc(C(C)N2C(=O)CC(c3nnc(C4CC4)o3)=C(Br)c3ccccc32)cc1F (stereo not shown) [Compound 40]	1 to 10 µM	1 to 10 µM	1 to 10 µM	1 to 10 µM
COc1ccc2c(c1)N(Cc1ccc(C)c(F)c1)C(=O)CC(c1cnco1)=C2Cl [Compound 8-5, 5-chloro-1-(3-fluoro-4-methylbenzyl)-8-methoxy-4-(oxazol-5-yl)-1,3-dihydro-2H-benzo[b]azepin-2-one]	0.001 to 1 µM	0.001 to 1 µM	0.001 to 1 µM	0.001 to 1 µM
COCC1=C(Br)c2ccccc2N(Cc2ccc(C)c(F)c2)C(=O)C1 [Compound 42, 5-bromo-1-(3-fluoro-4-methylbenzyl)-4-(methoxymethyl)-1,3-dihydro-2H-benzo[b]azepin-2-one]	0.001 to 1 µM	0.001 to 1 µM	0.001 to 1 µM	0.001 to 1 µM
COC1=C(c2cnco2)CC(=O)N(Cc2ccc(C)c(F)c2)c2ccccc21 [Compound 26-1, 1-(3-fluoro-4-methylbenzyl)-5-methoxy-4-(oxazol-5-yl)-1,3-dihydro-2H-benzo[b]azepin-2-one]	1 to 10 µM	1 to 10 µM	1 to 10 µM	1 to 10 µM
COc1ccc(C(=O)N2CCC(c3nnc(C4CC4)o3)=C(Br)c3ccccc32)cc1F [Compound 34-2, (5-bromo-4-(5-cyclopropyl-1,3,4-oxadiazol-2-yl)-2,3-dihydro-1H-benzo[b]azepin-1-yl)(3-fluoro-4-methoxyphenyl)methanone]	0.001 to 1 µM	0.001 to 1 µM	0.001 to 1 µM	0.001 to 1 µM
Cc1nnc(C2=C(Cl)c3ccccc3N(Cc3ccc(C)c(F)c3)C(=O)C2)o1 [Compound 20-1, 5-chloro-1-(3-fluoro-4-methylbenzyl)-4-(5-methyl-1,3,4-oxadiazol-2-yl)-1,3-dihydro-2H-benzo[b]azepin-2-one]	0.001 to 1 µM	0.001 to 1 µM	0.001 to 1 µM	0.001 to 1 µM
Cc1ccc(CN2C(=O)CC(COC3CCOCC3)=C(Br)c3ccccc32)cc1F [Compound 44-2, 5-bromo-1-(3-fluoro-4-methylbenzyl)-4-(((tetrahydro-2H-pyran-4-yl)oxy)methyl)-1,3-dihydro-2H-benzo[b]azepin-2-one]	1 to 10 µM	1 to 10 µM	1 to 10 µM	1 to 10 µM
Cc1ccc(CN2C(=O)CC(c3cnco3)=C(Cl)c3ccccc32)cc1F [Compound 8-1, 5-chloro-1-(3-fluoro-4-methylbenzyl)-4-(oxazol-5-yl)-1,3-dihydro-2H-benzo[b]azepin-2-one]	0.001 to 1 µM	0.001 to 1 µM	0.001 to 1 µM	0.001 to 1 µM
Cc1ccc(CN2C(=O)CC(c3nc[nH]n3)=C(Br)c3ccccc32)cc1F [Compound 22-1, 5-bromo-1-(3-fluoro-4-methylbenzyl)-4-(1H-1,2,4-triazol-3-yl)-1,3-dihydro-2H-benzo[b]azepin-2-one]	1 to 10 µM	1 to 10 µM	1 to 10 µM	1 to 10 µM
Cc1ccc(CN2C(=O)CC(COC3CCOC3)=C(Br)c3ccccc32)cc1F (stereo not shown) [Compound 44-1, 5-bromo-1-(3-fluoro-4-methylbenzyl)-4-(((tetrahydrofuran-3-yl)oxy)methyl)-1,3-dihydro-2H-benzo[b]azepin-2-one]	0.001 to 1 µM	0.001 to 1 µM	0.001 to 1 µM	0.001 to 1 µM
Cc1ccc(CN2C(=O)CC(c3nnc(C4CC4)o3)=C(Cl)c3ccccc32)cc1F [Compound 20-5, 5-chloro-4-(5-cyclopropyl-1,3,4-oxadiazol-2-yl)-1-(3-fluoro-4-methylbenzyl)-1,3-dihydro-2H-benzo[b]azepin-2-one]	0.001 to 1 µM	0.001 to 1 µM	0.001 to 1 µM	0.001 to 1 µM
Cc1ccc(CN2C(=O)CC(c3nnc(C4CC4)o3)=C(Br)c3cccc(F)c32)cc1F [Compound 20-15, 5-bromo-4-(5-cyclopropyl-1,3,4-oxadiazol-2-yl)-9-fluoro-1-(3-fluoro-4-methylbenzyl)-1,3-dihydro-2H-benzo[b]azepin-2-one]	0.001 to 1 µM	0.001 to 1 µM	0.001 to 1 µM	0.001 to 1 µM
COC1=C(CO)CC(=O)N(Cc2ccc(C)c(F)c2)c2ccccc21 [Compound 27-1, 1-(3-fluoro-4-methylbenzyl)-4-(hydroxymethyl)-5-methoxy-1,3-dihydro-2H-benzo[b]azepin-2-one]	30 to 1000 µM	30 to 1000 µM	30 to 1000 µM	30 to 1000 µM
[2H]C(c1ccc(C)c(F)c1)N1C(=O)CC(c2nnc(C3CC3)o2)=C(Br)c2ccccc21 (stereo not shown) [Compound 20-26, 5-bromo-4-(5-cyclopropyl-1,3,4-oxadiazol-2-yl)-1-((3-fluoro-4-methylphenyl)methyl-d)-1,3-dihydro-2H-benzo[b]azepin-2-one]	0.001 to 1 µM	0.001 to 1 µM	0.001 to 1 µM	0.001 to 1 µM
[2H]C([2H])(c1ccc(C)c(F)c1)N1C(=O)CC(c2nnc(C3CC3)o2)=C(Br)c2ccccc21 [Compound 20-27, 5-bromo-4-(5-cyclopropyl-1,3,4-oxadiazol-2-yl)-1-((3-fluoro-4 methylphenyl)methyl-d2)-1,3-dihydro-2H-benzo[b]azepin-2-one]	0.001 to 1 µM	0.001 to 1 µM	0.001 to 1 µM	0.001 to 1 µM
Cc1ccc(CN2C(=O)CC(c3nnc(C4CC4)o3)=C(Br)c3ccc(Cl)cc32)cc1F [Compound 20-9, 5-bromo-8-chloro-4-(5-cyclopropyl-1,3,4-oxadiazol-2-yl)-1-(3-fluoro-4-methylbenzyl)-1,3-dihydro-2H-benzo[b]azepin-2-one]	0.001 to 1 µM	0.001 to 1 µM	0.001 to 1 µM	0.001 to 1 µM
